According to patent US11905324B2, “Fluorescent fusion polypeptide capable of detecting phosphorylation of cellular membrane receptors by GRKs (G-protein receptor kinases) and/or receptor tyrosine kinases (RTKs)” (Innovative Technologies in Biological Systems SL, priority 2017, dated 2024):
pIC50: −log10 of the molar value.

Biological target: T1, NK1 receptor (Homo sapiens, UniProt P25103)
T1 construct: expressed in transfected cells
Assay: NK1-Red ß-ARRNomad biosensor cell line inhibition assay (co-treatment with Substance P)
Type: cell-based
Details: co-treated with Substance P 100 nM, 24 h, BD PATHWAY 855; read-out: Ic50 (inhibition of NK1 receptor, biosensor change of localization)
Experimental: The Ic50 for L733,060 was Approx. 1.84×10^−7M after a treatment of 24 h with the agonist.

T1 sequence (P25103 whole entry, species assumed): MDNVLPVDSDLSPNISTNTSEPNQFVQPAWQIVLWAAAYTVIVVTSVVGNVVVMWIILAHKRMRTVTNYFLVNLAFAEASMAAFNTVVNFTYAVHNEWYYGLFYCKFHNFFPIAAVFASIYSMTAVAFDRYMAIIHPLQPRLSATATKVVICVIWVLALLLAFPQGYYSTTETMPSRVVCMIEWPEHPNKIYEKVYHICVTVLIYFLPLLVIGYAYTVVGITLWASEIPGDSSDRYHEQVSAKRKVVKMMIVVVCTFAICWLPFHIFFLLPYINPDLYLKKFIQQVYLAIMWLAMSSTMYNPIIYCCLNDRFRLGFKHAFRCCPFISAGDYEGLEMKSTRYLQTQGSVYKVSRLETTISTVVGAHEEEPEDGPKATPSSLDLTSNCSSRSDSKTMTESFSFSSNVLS

FC(F)(F)c1cc(CO[C@H]2CCCN[C@H]2c2ccccc2)cc(C(F)(F)F)c1 [L733,060]
pIC50: ~6.74
